Source: PubChem BioAssay (NCI)
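Following 48 hours of exposure in 96-well plates, responses at five concentrations were used to interpolate endpoints linearly. The concentration for 50% growth inhibition is given as GI50. Definition used: TGI = concentration required for complete inhibition of growth.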

Tests used:
Assay in all cases: growth of human tumour cells (NCI), 48 h
[1] = system: RPMI-8226 leukemia
[2] = system: SR leukemia
[3] = system: LOX IMVI melanoma
[4] = system: HCT-116 colon
[5] = system: 786-0 renal
[6] = system: M14 melanoma
[7] = system: CCRF-CEM leukemia
[8] = system: UACC-257 melanoma
[9] = system: U251 CNS
[10] = system: PC-3 prostate
[11] = system: SK-MEL-2 melanoma
[12] = system: HOP-92 NSCLC
[13] = system: NCI/ADR-RES ovarian
[14] = system: MCF7 breast
[15] = system: DU-145 prostate
[16] = system: HOP-62 NSCLC
[17] = system: SF-268 CNS
[18] = system: SN12C renal
[19] = system: EKVX NSCLC
[20] = system: ACHN renal
[21] = system: HL-60(TB) leukemia
[22] = system: MDA-MB-231 breast
[23] = system: NCI-H23 lung
[24] = system: IGROV1 ovarian
[25] = system: A498 renal
[26] = system: NCI-H460 lung
[27] = system: HCC-2998 colon
[28] = system: CAKI-1 renal
[29] = system: SF-539 CNS
[30] = system: K-562 leukemia
[31] = system: OVCAR-8 ovarian
[32] = system: SNB-19 CNS
[33] = system: TK-10 renal
[34] = system: COLO 205 colon
[35] = system: SF-295 CNS
[36] = system: MOLT-4 leukemia
[37] = system: NCI-H522 lung
[38] = system: OVCAR-4 ovarian
[39] = system: T-47D breast
[40] = system: SW-620 colon
[41] = system: HCT-15 colon
[42] = system: MDA-N
[43] = system: SNB-75 CNS
[44] = system: SK-OV-3 ovarian
[45] = system: UO-31 renal
[46] = system: UACC-62 melanoma
[47] = system: OVCAR-5 ovarian
[48] = system: A549 NSCLC
[49] = system: OVCAR-3 ovarian
[50] = system: HT29 colon
[51] = system: SK-MEL-28 melanoma
[52] = system: MDA-MB-435
[53] = system: NCI-H226 lung
[54] = system: KM12 colon
[55] = system: RXF 393 renal
[56] = system: MALME-3M melanoma

Compound `COc1cc([C@@H]2c3cc4c(cc3[C@@H](NC(=O)NO)[C@H]3COC(=O)[C@H]23)OCO4)cc(OC)c1O` has a TGI [1] greater than 100 µM, a TGI [2] greater than 100 µM and a TGI [3] greater than 100 µM. For the same compound, the TGI [4] was greater than 100 µM, the TGI [5] was greater than 100 µM and the GI50 [6] was 37 µM. The TGI [6] was greater than 100 µM, the TGI [7] was greater than 100 µM and the TGI [8] was greater than 100 µM. It also gave a TGI [9] greater than 100 µM, a TGI [10] greater than 100 µM and a TGI [11] greater than 100 µM. The TGI [12] was greater than 100 µM, the TGI [13] was 93.1 µM and the GI50 [14] was 7.84 µM. It also gave a TGI [14] greater than 100 µM, a GI50 [15] of 7.27 µM and a TGI [15] greater than 100 µM. It also gave a TGI [16] greater than 100 µM, a TGI [17] greater than 100 µM and a TGI [18] greater than 100 µM. For the same compound, the TGI [19] was greater than 100 µM, the GI50 [20] was 6.04 µM and the TGI [21] was greater than 100 µM. It also gave a TGI [22] greater than 100 µM, a GI50 [23] of 9.31 µM and a TGI [23] greater than 100 µM. For the same compound, the TGI [24] was greater than 100 µM, the TGI [25] was greater than 100 µM and the TGI [26] was greater than 100 µM. It also gave a GI50 [27] of 4.06 µM, a TGI [27] greater than 100 µM and a TGI [28] greater than 100 µM. It also gave a TGI [29] greater than 100 µM, a TGI [30] greater than 100 µM and a GI50 [31] of 34.4 µM. The TGI [31] was greater than 100 µM, the TGI [32] was greater than 100 µM and the TGI [33] was greater than 100 µM. For the same compound, the TGI [34] was greater than 100 µM, the GI50 [35] was 4.97 µM and the TGI [35] was greater than 100 µM. For the same compound, the GI50 [36] was 4.87 µM, the TGI [36] was greater than 100 µM and the TGI [37] was greater than 100 µM. For the same compound, the TGI [38] was greater than 100 µM, the TGI [39] was greater than 100 µM and the TGI [40] was greater than 100 µM. It also gave a TGI [41] greater than 100 µM and a TGI [42] of 5.13 µM.

In the case of `O=C(O)CCC(NC(=O)c1ccc(CNc2nc3cc(C(F)(F)F)ccc3nc2C(=O)O)cc1)C(=O)O` (configuration not stated), the TGI [43] is reported as greater than 100 µM, the TGI [2] is reported as greater than 100 µM and the TGI [3] is reported as greater than 100 µM. It also gave a TGI [4] greater than 100 µM, a TGI [44] greater than 100 µM and a TGI [5] greater than 100 µM. It also gave a TGI [6] greater than 100 µM, a TGI [7] greater than 100 µM and a TGI [8] greater than 100 µM. The TGI [9] was greater than 100 µM, the TGI [10] was greater than 100 µM and the TGI [11] was greater than 100 µM. The TGI [12] was greater than 100 µM, the TGI [45] was greater than 100 µM and the TGI [46] was greater than 100 µM. For the same compound, the TGI [47] was greater than 100 µM, the TGI [13] was greater than 100 µM and the TGI [15] was greater than 100 µM. For the same compound, the TGI [48] was greater than 100 µM, the TGI [49] was greater than 100 µM and the TGI [16] was greater than 100 µM. For the same compound, the TGI [17] was greater than 100 µM, the TGI [19] was greater than 100 µM and the TGI [20] was greater than 100 µM. For the same compound, the TGI [21] was greater than 100 µM, the TGI [23] was greater than 100 µM and the TGI [24] was greater than 100 µM. It also gave a TGI [25] greater than 100 µM, a TGI [50] greater than 100 µM and a TGI [51] greater than 100 µM. For the same compound, the TGI [26] was greater than 100 µM, the TGI [27] was greater than 100 µM and the TGI [28] was greater than 100 µM. For the same compound, the TGI [29] was greater than 100 µM, the TGI [30] was greater than 100 µM and the TGI [52] was greater than 100 µM. For the same compound, the TGI [31] was greater than 100 µM, the TGI [32] was greater than 100 µM and the TGI [33] was greater than 100 µM. For the same compound, the TGI [53] was greater than 100 µM, the TGI [34] was greater than 100 µM and the TGI [35] was greater than 100 µM. For the same compound, the TGI [36] was greater than 100 µM, the TGI [37] was greater than 100 µM and the TGI [54] was greater than 100 µM. For the same compound, the TGI [55] was greater than 100 µM, the TGI [38] was greater than 100 µM and the TGI [39] was greater than 100 µM. The TGI [40] was greater than 100 µM, the TGI [56] was greater than 100 µM and the TGI [41] was greater than 100 µM. The TGI [42] was greater than 100 µM.
